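Compound exposure: 48 hours, 5 concentrations, 96-well plates. GI50 = concentration required for 50% inhibition of growth. The concentration for full growth arrest is given as TGI.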
Experiments:
Experiment in all cases: inhibition of tumour cell growth, NCI panel, 48 h
[1] = tested on: CCRF-CEM leukemia
[2] = tested on: IGROV1 ovarian
[3] = tested on: KM12 colon
[4] = tested on: MOLT-4 leukemia
[5] = tested on: SF-268 CNS
[6] = tested on: SK-MEL-28 melanoma
[7] = tested on: SK-MEL-5 melanoma
[8] = tested on: SNB-19 CNS
[9] = tested on: SNB-75 CNS
[10] = tested on: DU-145 prostate

Structure (SMILES)	TGI [1]	TGI [2]	TGI [3]	TGI [4]	TGI [5]	TGI [6]	TGI [7]	TGI [8]	TGI [9]	TGI [10]	GI50 [1]	GI50 [2]	GI50 [3]	GI50 [4]	GI50 [5]	GI50 [6]	GI50 [7]	GI50 [8]	GI50 [9]	GI50 [10]
COC(=O)c1cccc2cccc(C(=O)Nc3ccc(Cl)cc3)c12	> 67.1 µM	> 100 µM	> 100 µM	> 100 µM	> 100 µM	> 100 µM	> 100 µM	> 100 µM	> 100 µM											
CCC(=O)Nc1ccc(N=NN(C)C)cc1				43.4 µM	> 100 µM	> 100 µM	> 100 µM	> 100 µM	> 100 µM	> 100 µM										
O=S1(=O)OCCOS(=O)(=O)C1Cl	> 100 µM	> 100 µM	> 100 µM	> 100 µM	> 100 µM	> 100 µM	> 100 µM	> 100 µM	> 100 µM											
CC(C(=O)n1c2ccccc2c2ccccc21)N(c1ccccc1)c1ccccc1 (stereo not drawn)	4.02 µM	32.6 µM		29.3 µM	36.2 µM	34.4 µM	35.1 µM	> 100 µM	37.8 µM											
OCCNCCOc1ccc(/C(=C(/Cl)c2ccccc2)c2ccccc2)cc1	9.87 µM	25.4 µM	13.5 µM	17.2 µM		3.16 µM	19.2 µM	28.4 µM	8.46 µM											
COc1cc(C2C(C(=O)Nc3cc(F)c(F)cc3F)=C(C)NC(C)=C2C(=O)Nc2cc(F)c(F)cc2F)ccc1O	45.6 µM	> 100 µM	35.8 µM	45.2 µM	> 100 µM	> 100 µM	53.9 µM	> 100 µM	25.8 µM											
Cc1cc(C(C)(C)C)cc(Cc2cc(C(C)(C)C)cc(Cc3cc(C(C)(C)C)cc(C)c3O)c2O)c1O	9.04 µM	23.5 µM	21.4 µM	10.6 µM	12.2 µM		21.6 µM	26 µM	15.5 µM											
CC(C)C1=C2CCC3(C)C(CCC4C5C6OCC5(CCC6(C)C)CCC43C)C2(C)CC1 (stereo not drawn)	31.9 µM	29.2 µM	35.2 µM	34.6 µM	69.9 µM	32.8 µM	50.2 µM	98.6 µM		37.5 µM										
[F][Sn]([F])([c]1ccccc1)[c]1ccccc1	3.82 µM	4 µM	3.43 µM	5.22 µM	3.78 µM	3.75 µM	3.31 µM	5.58 µM	4.61 µM		0.688 µM	1.84 µM	1.7 µM	1.17 µM	1.84 µM	1.96 µM	1.78 µM	2.25 µM	1.7 µM	
O=C(OCC(OC(=O)c1ccccc1)C(OC(=O)c1ccccc1)C(OC(=O)c1ccccc1)c1cnn(-c2ccccc2)n1)c1ccccc1 (stereo not drawn)	> 100 µM	> 100 µM	> 100 µM	> 100 µM	> 100 µM	> 100 µM	> 100 µM	> 100 µM		> 100 µM										
Cc1cccc(C(C)C)c1NC(=O)C(=O)C(C(=O)c1ccccc1F)C1OC(=O)c2ccccc21 (stereo not drawn)	41 µM	77.9 µM	50 µM	27.9 µM	92.9 µM	53.7 µM	28.5 µM	29 µM	45.9 µM											
Cc1ccc(Nc2nnc(-c3ccc4c(c3)OCO4)o2)c(C)c1		> 100 µM	> 100 µM	> 100 µM	> 100 µM	> 100 µM	> 100 µM	> 100 µM	> 100 µM	> 100 µM										
CC1=C(C(=O)Nc2ccccc2)C(c2ccc(C3C(C(=O)Nc4ccccc4)=C(C)NC(C)=C3C(=O)Nc3ccccc3)cc2)C(C(=O)Nc2ccccc2)=C(C)N1	12 µM	6.94 µM	5.01 µM	11.6 µM	5.7 µM	3.64 µM	6.22 µM	20.5 µM	23.7 µM											
CC(=O)OCCOCNC(=S)N/N=C/c1ccc(Br)s1	> 100 µM	> 100 µM	> 100 µM	> 100 µM	> 100 µM	> 100 µM	> 100 µM	> 100 µM	> 100 µM											
COc1cc(C(=O)C/C(CCC(=O)Nc2ccc(Cl)cc2Cl)=N/NC(=O)C(=O)NN)ccc1O	> 100 µM	> 100 µM	> 100 µM		> 100 µM	> 100 µM	> 100 µM	> 100 µM	> 100 µM											
CC1=C(c2cc(C(=O)Nc3ccc(Cl)cc3)nc(=S)[nH]2)Sc2ccccc2N1	> 100 µM	> 100 µM	> 100 µM		> 100 µM	> 100 µM	> 100 µM	> 100 µM	> 100 µM											
c1ccc(CSc2nc3ccccc3nc2-c2cccs2)cc1	> 100 µM	> 100 µM	> 100 µM	> 100 µM	> 100 µM	> 100 µM	> 100 µM	> 100 µM	> 100 µM											
N.N.NCCCCCCCCCN.O=C([O-])CC(=O)[O-].O=C([O-])CC(=O)[O-].[Pt+4].[Pt+4]	> 100 µM	> 100 µM	> 100 µM	> 100 µM	> 100 µM	> 100 µM	81.7 µM	> 100 µM	> 100 µM		21.1 µM	> 100 µM	> 100 µM	> 100 µM	> 100 µM	87.5 µM	28.9 µM	> 100 µM	> 100 µM	
CCOc1ccccc1NC(=O)C(=O)Cc1nc2ccccc2s1	> 100 µM	> 100 µM	> 100 µM	> 100 µM	> 100 µM	> 100 µM	> 100 µM	> 100 µM	> 100 µM											
O=C1C(=O)N(c2cc(Cl)ccc2Cl)C(=O)C(=O)C1c1nc2ccccc2o1	> 100 µM	> 100 µM	> 31.6 µM	> 100 µM	> 100 µM	> 100 µM	> 100 µM	> 100 µM	> 100 µM											
Clc1cc(Cl)cc(Nc2ccc3cc(OCCCN4CCOCC4)ccc3n2)c1		> 100 µM	5.4 µM	5.81 µM	> 100 µM		3.13 µM			> 100 µM		3.47 µM	2.23 µM	1.77 µM	2.9 µM		1.71 µM			3.05 µM

Source: PubChem BioAssay (NCI)
